ChEMBL document CHEMBL1130515, “4-Heterocyclyl tetrahydropyridines as selective ligands for the human dopamine D4 receptor” (Bioorg Med Chem Lett, 1997)

Test system: not listed separately
Assay: Maximum concentration in plasma (Cmax) was evaluated in rat at an intravenous dose of 3 mg/kg and peroral dose of 5 mg/kg
Assay type: ADME, organism-based
Conditions: po

Row | SMILES | Cmax
1 | Clc1ccc(CN2CC=C(c3nc4ccccc4s3)CC2)cc1 | 0.097 µg/mL

Test system: Rattus norvegicus
Assay: Volume of distribution (Vss) was evaluated in rat at an intravenous dose of 3 mg/kg and peroral dose of 5 mg/kg
Assay type: ADME, organism-based
Conditions: in vivo

Row | SMILES | Vss
2 | Clc1ccc(CN2CC=C(c3nc4ccccc4s3)CC2)cc1 | 3.81 kg⁻¹

Target: T1, D(4) dopamine receptor (Homo sapiens, UniProt P21917)
T1 sequence (P21917 whole entry): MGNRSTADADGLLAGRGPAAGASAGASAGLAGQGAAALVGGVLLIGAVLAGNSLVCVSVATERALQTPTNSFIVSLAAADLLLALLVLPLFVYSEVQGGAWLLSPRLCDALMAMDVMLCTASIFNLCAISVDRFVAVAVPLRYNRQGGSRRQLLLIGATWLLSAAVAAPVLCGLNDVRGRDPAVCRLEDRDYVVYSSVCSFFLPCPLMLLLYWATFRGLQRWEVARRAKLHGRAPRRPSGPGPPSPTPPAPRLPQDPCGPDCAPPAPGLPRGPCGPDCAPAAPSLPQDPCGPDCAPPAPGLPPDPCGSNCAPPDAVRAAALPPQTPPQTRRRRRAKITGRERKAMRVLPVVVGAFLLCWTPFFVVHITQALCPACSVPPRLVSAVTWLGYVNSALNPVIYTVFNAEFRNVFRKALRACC
Assay: Displacement of [3H]spiperone from human dopamine receptor subtype hD4 expressed in HEK293 cells
Assay type: cell-based
Conditions: not given

Row | SMILES | Ki
3 | Clc1ccc(CN2CC=C(c3nc4ccccc4s3)CC2)cc1 | 0.0013 µM
4 | Clc1ccc(CN2CC=C(c3nc4ccccc4[nH]3)CC2)cc1 | 0.068 µM
5 | Clc1ccc2oc(C3=CCN(Cc4ccccc4)CC3)nc2c1 | 0.017 µM
6 | C1=C(c2nc3ccccc3o2)CCN(Cc2ccccc2)C1 | 0.097 µM
7 | Clc1ccc(CN2CC=C(c3nc4cc(Cl)ccc4[nH]3)CC2)cc1 | 0.01 µM
8 | Clc1ccc2[nH]c(C3=CCN(Cc4ccccc4)CC3)nc2c1 | 0.026 µM
9 | C1=C(c2nc3ccccc3s2)CCN(Cc2ccccc2)C1 | 0.005 µM
10 | Clc1cccc(CN2CC=C(c3nc4ccccc4s3)CC2)c1 | 0.0081 µM
11 | C1=C(c2nc3ccccc3[nH]2)CCN(Cc2ccccc2)C1 | 0.094 µM
12 | Clc1ccccc1CN1CC=C(c2nc3ccccc3s2)CC1 | 0.087 µM
13 | Clc1ccc(CN2CC=C(c3nc4cc(Cl)ccc4s3)CC2)cc1 | 0.021 µM
14 | Clc1ccc2sc(C3=CCN(Cc4ccccc4)CC3)nc2c1 | 0.044 µM
15 | Clc1ccc(CN2CC=C(c3nc4cc(Cl)ccc4o3)CC2)cc1 | 0.0084 µM

Test system: not listed separately
Assay: Half life was evaluated in rat at an intravenous dose of 3 mg/kg and peroral dose of 5 mg/kg
Assay type: ADME, organism-based
Conditions: in vivo

Row | SMILES | half-life
16 | Clc1ccc(CN2CC=C(c3nc4ccccc4s3)CC2)cc1 | 3.1 h

Test system: Rhesus monkey
Assay: Volume of distribution (Vss) was evaluated in rhesus monkey at an intravenous dose of 1 mg/kg and peroral dose of 1 mg/kg
Assay type: ADME, organism-based, Macaca mulatta
Conditions: in vivo

Row | SMILES | Vss
17 | Clc1ccc(CN2CC=C(c3nc4ccccc4s3)CC2)cc1 | 2.5 kg⁻¹

Test system: not listed separately
Assay: Maximum concentration in plasma (Cmax) was evaluated in rhesus monkey at an intravenous dose of 1 mg/kg and peroral dose of 1 mg/kg
Assay type: ADME, organism-based, Macaca mulatta
Conditions: po

Row | SMILES | Cmax
18 | Clc1ccc(CN2CC=C(c3nc4ccccc4s3)CC2)cc1 | 0.023 µg/mL

Test system: not listed separately
Assay: Half life was evaluated in rhesus monkey at an intravenous dose of 1 mg/kg and peroral dose of 1 mg/kg
Assay type: ADME, organism-based, Macaca mulatta
Conditions: in vivo

Row | SMILES | half-life
19 | Clc1ccc(CN2CC=C(c3nc4ccccc4s3)CC2)cc1 | 4.7 h

Test system: not listed separately
Assay: Bioavailability was evaluated in rat at an intravenous dose of 3 mg/kg and peroral dose of 5 mg/kg
Assay type: ADME, organism-based
Conditions: in vivo, po, read-out: Bioavailabiility

Row | SMILES | bioavailability
20 | Clc1ccc(CN2CC=C(c3nc4ccccc4s3)CC2)cc1 | 17%

Target: D(3) dopamine receptor (Homo sapiens, UniProt P35462)
Sequence (P35462 whole entry): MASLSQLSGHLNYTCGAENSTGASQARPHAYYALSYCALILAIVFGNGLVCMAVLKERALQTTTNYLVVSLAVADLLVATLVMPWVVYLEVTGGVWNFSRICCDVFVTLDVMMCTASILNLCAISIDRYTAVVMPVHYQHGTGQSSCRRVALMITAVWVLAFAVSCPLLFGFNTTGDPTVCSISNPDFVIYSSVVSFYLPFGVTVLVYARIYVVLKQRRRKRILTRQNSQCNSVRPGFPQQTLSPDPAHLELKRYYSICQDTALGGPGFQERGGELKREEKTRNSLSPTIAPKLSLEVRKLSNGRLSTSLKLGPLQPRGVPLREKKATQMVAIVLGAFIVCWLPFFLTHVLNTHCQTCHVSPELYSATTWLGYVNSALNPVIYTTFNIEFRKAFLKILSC
Assay: Displacement of [3H]spiperone from human dopamine receptor subtype hD3 expressed in CHO cells
Assay type: cell-based
Conditions: not given

Row | SMILES | Ki
21 | Clc1ccc(CN2CC=C(c3nc4ccccc4s3)CC2)cc1 | > 4.4 µM
22 | Clc1ccc(CN2CC=C(c3nc4ccccc4[nH]3)CC2)cc1 | 1.6 µM
23 | Clc1ccc2oc(C3=CCN(Cc4ccccc4)CC3)nc2c1 | 1.6 µM
24 | C1=C(c2nc3ccccc3o2)CCN(Cc2ccccc2)C1 | 4.5 µM
25 | Clc1ccc(CN2CC=C(c3nc4cc(Cl)ccc4[nH]3)CC2)cc1 | 0.9 µM
26 | Clc1ccc2[nH]c(C3=CCN(Cc4ccccc4)CC3)nc2c1 | 2.9 µM
27 | C1=C(c2nc3ccccc3s2)CCN(Cc2ccccc2)C1 | 0.56 µM
28 | Clc1cccc(CN2CC=C(c3nc4ccccc4s3)CC2)c1 | 0.63 µM
29 | C1=C(c2nc3ccccc3[nH]2)CCN(Cc2ccccc2)C1 | 4.4 µM
30 | Clc1ccccc1CN1CC=C(c2nc3ccccc3s2)CC1 | 1.4 µM
31 | Clc1ccc(CN2CC=C(c3nc4cc(Cl)ccc4s3)CC2)cc1 | 0.66 µM
32 | Clc1ccc2sc(C3=CCN(Cc4ccccc4)CC3)nc2c1 | 1.8 µM
33 | Clc1ccc(CN2CC=C(c3nc4cc(Cl)ccc4o3)CC2)cc1 | > 4.5 µM

Test system: not listed separately
Assay: Bioavailability was evaluated in rhesus monkey at an intravenous dose of 1 mg/kg and peroral dose of 1 mg/kg
Assay type: ADME, organism-based, Macaca mulatta
Conditions: in vivo, po, read-out: Bioavailabiility

Row | SMILES | bioavailability
34 | Clc1ccc(CN2CC=C(c3nc4ccccc4s3)CC2)cc1 | 9%

Target: Dopamine receptors; D2 & D4 (Homo sapiens) (UniProt P14416+P21917)
Sequence (P14416 whole entry, looked up, one chain of several): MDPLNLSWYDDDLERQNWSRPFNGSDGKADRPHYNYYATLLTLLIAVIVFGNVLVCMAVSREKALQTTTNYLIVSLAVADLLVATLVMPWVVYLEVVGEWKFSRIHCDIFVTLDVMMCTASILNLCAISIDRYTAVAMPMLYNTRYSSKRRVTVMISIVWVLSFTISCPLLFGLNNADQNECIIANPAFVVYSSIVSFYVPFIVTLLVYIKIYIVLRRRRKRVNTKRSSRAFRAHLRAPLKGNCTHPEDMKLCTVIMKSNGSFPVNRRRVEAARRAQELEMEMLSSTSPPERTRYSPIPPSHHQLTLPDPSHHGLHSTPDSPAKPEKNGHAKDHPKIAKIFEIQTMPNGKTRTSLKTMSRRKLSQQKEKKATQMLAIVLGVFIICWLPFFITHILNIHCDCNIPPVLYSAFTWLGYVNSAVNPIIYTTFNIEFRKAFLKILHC
Assay: Ratio of dopamine D2/D4 receptor binding
Assay type: protein assay
Conditions: not given

Row | SMILES | Ratio
35 | Clc1ccc(CN2CC=C(c3nc4ccccc4s3)CC2)cc1 | > 1000
36 | Clc1ccc(CN2CC=C(c3nc4ccccc4[nH]3)CC2)cc1 | 10
37 | Clc1ccc2oc(C3=CCN(Cc4ccccc4)CC3)nc2c1 | > 100
38 | C1=C(c2nc3ccccc3o2)CCN(Cc2ccccc2)C1 | 3
39 | Clc1ccc(CN2CC=C(c3nc4cc(Cl)ccc4[nH]3)CC2)cc1 | 33
40 | Clc1ccc2[nH]c(C3=CCN(Cc4ccccc4)CC3)nc2c1 | 23
41 | C1=C(c2nc3ccccc3s2)CCN(Cc2ccccc2)C1 | 120
42 | Clc1cccc(CN2CC=C(c3nc4ccccc4s3)CC2)c1 | 42
43 | C1=C(c2nc3ccccc3[nH]2)CCN(Cc2ccccc2)C1 | 15
44 | Clc1ccccc1CN1CC=C(c2nc3ccccc3s2)CC1 | > 23
45 | Clc1ccc(CN2CC=C(c3nc4cc(Cl)ccc4s3)CC2)cc1 | 97
46 | Clc1ccc2sc(C3=CCN(Cc4ccccc4)CC3)nc2c1 | > 36
47 | Clc1ccc(CN2CC=C(c3nc4cc(Cl)ccc4o3)CC2)cc1 | > 200

Test system: Rattus norvegicus
Assay: Plasma clearance was evaluated in rat at an intravenous dose of 3 mg/kg and peroral dose of 5 mg/kg
Assay type: ADME, organism-based
Conditions: in vivo

Row | SMILES | Plasma clearance
48 | Clc1ccc(CN2CC=C(c3nc4ccccc4s3)CC2)cc1 | 39 Clp

Target: D(2) dopamine receptor (Homo sapiens, UniProt P14416)
Sequence (P14416 whole entry): as the sequence (P14416 whole entry, looked up, one chain of several) above
Assay: Displacement of [3H]spiperone from human dopamine D2 receptor in CHO cells
Assay type: cell-based
Conditions: not given

Row | SMILES | Ki
49 | Clc1ccc(CN2CC=C(c3nc4ccccc4s3)CC2)cc1 | > 1.6 µM
50 | Clc1ccc(CN2CC=C(c3nc4ccccc4[nH]3)CC2)cc1 | 0.67 µM
51 | Clc1ccc2oc(C3=CCN(Cc4ccccc4)CC3)nc2c1 | > 1.8 µM
52 | C1=C(c2nc3ccccc3o2)CCN(Cc2ccccc2)C1 | 0.24 µM
53 | Clc1ccc(CN2CC=C(c3nc4cc(Cl)ccc4[nH]3)CC2)cc1 | 0.33 µM
54 | Clc1ccc2[nH]c(C3=CCN(Cc4ccccc4)CC3)nc2c1 | 0.59 µM
55 | C1=C(c2nc3ccccc3s2)CCN(Cc2ccccc2)C1 | 0.6 µM
56 | Clc1cccc(CN2CC=C(c3nc4ccccc4s3)CC2)c1 | 0.34 µM
57 | C1=C(c2nc3ccccc3[nH]2)CCN(Cc2ccccc2)C1 | 1.4 µM
58 | Clc1ccccc1CN1CC=C(c2nc3ccccc3s2)CC1 | > 2 µM
59 | Clc1ccc(CN2CC=C(c3nc4cc(Cl)ccc4s3)CC2)cc1 | 2 µM
60 | Clc1ccc2sc(C3=CCN(Cc4ccccc4)CC3)nc2c1 | > 1.6 µM
61 | Clc1ccc(CN2CC=C(c3nc4cc(Cl)ccc4o3)CC2)cc1 | > 1.7 µM
